Measurements published in patent US9062028B2, “Bicyclic nitrogen containing heteroaryl TGR5 receptor modulators” (Bristol-Myers Squibb Company, priority 2011, dated 2015).
Counter-ions that a name gives are not always drawn.

target: T1, recombinant human TGR5 (Homo sapiens, UniProt Q8TDU6); assay: cAMP assay (cAMP accumulation, HTRF) in CHOK1 cells stably expressing TGR5; type: cell-based; conditions: CHOK1 cells stably expressing human TGR5, 30 minutes at RT, 1% DMSO
T1 construct: expressed in transfected cells
T1 sequence (Q8TDU6 1-330): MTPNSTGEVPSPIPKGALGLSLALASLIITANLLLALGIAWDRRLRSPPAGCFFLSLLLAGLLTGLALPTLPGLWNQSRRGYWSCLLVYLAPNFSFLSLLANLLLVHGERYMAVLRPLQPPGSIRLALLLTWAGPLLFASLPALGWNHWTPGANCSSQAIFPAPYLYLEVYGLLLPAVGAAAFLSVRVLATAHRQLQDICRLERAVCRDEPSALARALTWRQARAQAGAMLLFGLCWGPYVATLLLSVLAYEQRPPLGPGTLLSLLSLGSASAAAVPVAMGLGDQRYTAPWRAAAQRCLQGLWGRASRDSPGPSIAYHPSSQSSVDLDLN
Method in brief: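 Agonist-induced cAMP accumulation: stable TGR5-CHOK1 cells treated 30 min at RT with compound (1% DMSO) plus 0.1 mM IBMX. HTRF ratio converted to nM cAMP via standard curve; EC50 from four-parameter logistic fit, midpoint between baseline and maximum.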

Compared with Cc1cccc(OCCCC(=O)N2CC3CC3c3c(-c4cnn(Cc5cc(C(=O)O)ccc5Cl)c4)cccc32)c1C (stereo not drawn) [Example 69H, 4-Chloro-3-((4-(3-(4-(2,3-dimethylphenoxy)butanoyl)-1a,2,3,7b-tetrahydro-1H-cyclopropa[c]quinolin-7-yl)-1H-pyrazol-1-yl)methyl)benzoic acid], Cc1cccc(OCCCC(=O)N2C[C@@H]3C[C@@H]3c3c(-c4cnn(Cc5cccc(NC(=O)NCC(=O)O)c5)c4)cccc32)c1C (single isomer, unassigned) [Example 250] is 1.8-fold lower in EC50: 52 nM for the first, 29 nM for the second. The second is the more potent here.

Going from Cc1cccc(OCCCC(=O)N2C[C@@H]3C[C@@H]3c3c(-c4cnn(Cc5cccc(C(=O)N[C@H]6CCOC6=O)c5)c4)cccc32)c1C [Example 891, 3-((4-((1aR,7bS)-3-(4-(2,3-Dimethylphenoxy)butanoyl)-1a,2,3,7b-tetrahydro-1H-cyclopropa[c]quinolin-7-yl)-1H-pyrazol-1-yl)methyl)-N-((S)-2-oxotetrahydrofuran-3-yl)benzamide] to Cc1cccc(OCCCC(=O)N2C[C@H]3C[C@H]3c3c(-c4cnn(Cc5cccc(NC(=O)NCC(=O)O)c5)c4)cccc32)c1C (single isomer, unassigned) [Example 251], the EC50 rises from 26 nM to 644 nM (25-fold). The first is the more potent here.

Cc1c(Cl)cccc1OCCCC(=O)N1CCSc2c(-c3cnn(Cc4cccc(C(=O)NCCO)c4)c3)cccc21 [Example 592, 3-((4-(4-(4-(3-Chloro-2-methylphenoxy)butanoyl)-3,4-dihydro-2H-benzo[b][1,4]thiazin-8-yl)-1H-pyrazol-1-yl)methyl)-N-(2-hydroxyethyl) benzamide] and Cc1c(Cl)cccc1OCCCC(=O)N1CCSc2c(-c3cnn(Cc4cccc(C(=O)NCC(C)(C)O)c4)c3)cccc21 [Example 593, 3-((4-(4-(4-(3-Chloro-2-methylphenoxy)butanoyl)-3,4-dihydro-2H-benzo[b][1,4]thiazin-8-yl)-1H-pyrazol-1-yl)methyl)-N-(2-hydroxy-2-methylpropyl)benzamide] are within 1.5-fold of each other in EC50: 30 nM for the first, 42 nM for the second.

Compared with Cc1cccc(OCCCC(=O)N2CCOc3c(-c4cnn(Cc5cccc(C(=O)N[C@@H](CC(=O)O)C(=O)O)c5Cl)c4)cccc32)c1C [Example 624, (S)-2-(2-Chloro-3-((4-(4-(4-(2,3-dimethylphenoxy)butanoyl)-3,4-dihydro-2H-benzo[b][1,4]oxazin-8-yl)-1H-pyrazol-1-yl)methyl)benzamido)succinic acid], Cc1cccc(OCCCC(=O)N2CCCOc3c(-c4cnn(Cc5ccc(C(=O)NCCC(=O)O)cc5)c4)cccc32)c1C [Example 142, 3-(4-((4-(5-(4-(2,3-Dimethylphenoxy)butanoyl)-2,3,4,5-tetrahydrobenzo[b][1,4]oxazepin-9-yl)-1H-pyrazol-1-yl)methyl)benzamido)propanoic acid] is 2.1-fold lower in EC50: 1380 nM for the first, 647 nM for the second. The second is the more potent here.

Compared with Cc1cccc(OCCCC(=O)N2CCCc3c(-c4csc(COC(=O)NCCC(=O)O)n4)cccc32)c1C [Example 46, 3-(((4-(1-(4-(2,3-Dimethylphenoxy)butanoyl)-1,2,3,4-tetrahydroquinolin-5-yl)thiazol-2-yl)methoxy)carbonylamino)propanoic acid], Cc1cccc(OCCCC(=O)N2CCCc3c(-c4cccc(COC(=O)N[C@H](CO)C(=O)O)c4)cccc32)c1C [Example 282, (R)-2-((3-(1-(4-(2,3-Dimethylphenoxy)butanoyl)-1,2,3,4-tetrahydroquinolin-5-yl)benzyloxy)carbonylamino)-3-hydroxypropanoic acid] is 2.9-fold lower in EC50: 1920 nM for the first, 664 nM for the second.

Compared with Cc1cccc(OCCCC(=O)N2CCCc3c(-c4cnn(Cc5c(F)cc(C(=O)NCS(=O)(=O)O)cc5Cl)c4)cccc32)c1C [Example 179, (3-Chloro-4-((4-(1-(4-(2,3-dimethylphenoxy)butanoyl)-1,2,3,4-tetrahydroquinolin-5-yl)-1H-pyrazol-1-yl)methyl)-5-fluorobenzamido)methanesulfonic acid], Cc1c(Cl)cccc1OCCCC(=O)N1CCCOc2c(-c3cnn(Cc4c(F)cc(C(=O)NCC(=O)O)cc4Cl)c3)cccc21 [Example 786, 2-(3-Chloro-4-((4-(5-(4-(3-chloro-2-methylphenoxy)butanoyl)-2,3,4,5-tetrahydrobenzo[b][1,4]oxazepin-9-yl)-1H-pyrazol-1-yl)methyl)-5-fluorobenzamido)acetic acid] is 3.8-fold higher in EC50: 45 nM for the first, 173 nM for the second. The first is the more potent here.

Cc1cccc(NCCCC(=O)N2CCCc3c(-c4cnn(Cc5cccc(C(=O)O)c5)c4)cccc32)c1C [Example 934, 3-((4-(1-(4-(2,3-Dimethylphenylamino)butanoyl)-1,2,3,4-tetrahydroquinolin-5-yl)-1H-pyrazol-1-yl)methyl)benzoic acid, TFA salt] and Cc1cccc(OCCCC(=O)N2CCCc3c(-c4cnn(Cc5cccc(C(=O)N6CCCC(CO)C6)c5)c4)cccc32)c1C (stereo not drawn) [Example 830, 4-(2,3-Dimethylphenoxy)-1-(5-(1-(3-(3-(hydroxymethyl)piperidine-1-carbonyl)benzyl)-1H-pyrazol-4-yl)-3,4-dihydroquinolin-1(2H)-yl)butan-1-one] are within 1.5-fold of each other in EC50: 191 nM for the first, 176 nM for the second.

Compared with Cc1cccc(OCCCC(=O)N2C[C@@H]3C[C@@H]3c3c(-c4cnn(Cc5cccc(NC(=O)NCCC(=O)O)c5)c4)cccc32)c1C (single isomer, unassigned) [Example 248], Cc1cccc(OCCCC(=O)N2CCCc3c(-c4cnn(Cc5cccc(-c6nnn(CC(=O)O)n6)c5)c4)cccc32)c1C [Example 430, 2-(5-(3-((4-(1-(4-(2,3-Dimethylphenoxy)butanoyl)-1,2,3,4-tetrahydroquinolin-5-yl)-1H-pyrazol-1-yl)methyl)phenyl)-2H-tetrazol-2-yl) acetic acid] is 3.5-fold higher in EC50: 56 nM for the first, 197 nM for the second.

Compared with Cc1cccc(OCCCC(=O)N2CCCc3c(-c4cnn(Cc5cccc(C(=O)N[C@@H](Cc6ccccc6)C(=O)O)c5)c4)cccc32)c1C [Example 848, (S)-2-(3-((4-(1-(4-(2,3-Dimethylphenoxy)butanoyl)-1,2,3,4-tetrahydroquinolin-5-yl)-1H-pyrazol-1-yl)methyl)benzamido)-3-phenylpropanoic acid], Cc1cccc(OCCOC(=O)N2CCOc3c(-c4cnn(Cc5cccc(C(=O)O)c5)c4)cccc32)c1C [Example 29, 3-((4-(4-((2-(2,3-Dimethylphenoxy)ethoxy)carbonyl)-3,4-dihydro-2H-benzo[b][1,4]oxazin-8-yl)-1H-pyrazol-1-yl)methyl)benzoic acid] is 3-fold higher in EC50: 196 nM for the first, 596 nM for the second.

With Cc1c(Cl)cccc1OCCCC(=O)N1CCSc2c(-c3cnn(Cc4c(F)cc(C(=O)NCC(=O)O)cc4Cl)c3)cccc21 [Example 581, 2-(3-Chloro-4-((4-(4-(4-(3-chloro-2-methylphenoxy)butanoyl)-3,4-dihydro-2H-benzo[b][1,4]thaizin-8-yl)-1H-pyrazol-1-yl)methyl)-5-fluorobenzamido)acetic acid] the EC50 was 38 nM.

target: T2, recombinant human DGAT1 (Homo sapiens, UniProt O75907); assay: Diacylglycerol Acyltransferase (DGAT) Assay; type: biochemical; conditions: membranes from Sf9 cells expressing recombinant human DGAT1; 2-monooleoylglycerol and [3H]-oleoyl-CoA as substrates; read-out: IC50 against the DGAT1 enzyme
T2 construct: made in house; host or cells: Sf9 insect cells (baculovirus), membrane preparation
T2 sequence (O75907 1-488): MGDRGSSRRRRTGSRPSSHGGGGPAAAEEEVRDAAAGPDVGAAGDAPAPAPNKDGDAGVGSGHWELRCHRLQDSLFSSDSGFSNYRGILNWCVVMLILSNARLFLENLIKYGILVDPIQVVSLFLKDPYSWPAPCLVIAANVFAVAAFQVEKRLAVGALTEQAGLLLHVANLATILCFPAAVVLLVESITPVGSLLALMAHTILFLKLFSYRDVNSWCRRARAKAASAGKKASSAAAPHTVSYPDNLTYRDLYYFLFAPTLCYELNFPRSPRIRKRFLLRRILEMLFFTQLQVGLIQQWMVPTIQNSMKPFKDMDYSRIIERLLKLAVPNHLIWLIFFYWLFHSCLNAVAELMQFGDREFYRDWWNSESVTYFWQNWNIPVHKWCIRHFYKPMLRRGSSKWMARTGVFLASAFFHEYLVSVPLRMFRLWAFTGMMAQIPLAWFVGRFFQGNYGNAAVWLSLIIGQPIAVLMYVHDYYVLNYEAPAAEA
Description: Diacylglycerol Acyltransferase (DGAT) Assay
DGAT1 enzyme was assayed using membranes isolated from Sf9 cells expressing the recombinant human DGAT1 cDNA with 2-monooleoylglycerol and [^3H]-oleoyl-CoA as substrates as described by Seethala et al. (Anal Biochem., 383(2):144-150 (Dec. 15, 2008)). Briefly, the assays were conducted in 384-well plates in a total volume of 30 μl at 25° C. In each assay, 200 ng of recombinant human DGAT1 membrane was incubated with 10 μM of 2-monooleoylglycerol and 15 μM of [^3H]-oleoyl-CoA in 100 mM potassium phosphate (pH 7.4) for 20 min with various concentrations of compounds delivered in DMSO. The assay was terminated by the addition of 20 μl of Stopping Solution (7.5 mg/ml Yittrium Oxide Polylysine beads, 3.3 mg/ml Fraction V BSA and 200 μM Mercuric chloride in 50 mM HEPES, pH 7.4). The signal was measured 1 h after quenching the reaction using LEADSEEKER^SM for 5 minutes. To calculate the degree of inhibition, the zero level of enzyme activity (blank) was defined by the above assay procedure using membrane form Sf9 cell uninfected with baculovirus (Naive) and the 100% level of DGAT1 enzyme activity was defined by human […] DGAT1 assay with the vehicle DMSO. The IC50s of inhibitors were determined by logistic 4 parameter equation in XL-fit.

Cc1cccc(OCCCC(=O)N2CCCc3c(-c4cnn(Cc5cccc(OCCP(=O)(O)O)c5)c4)cccc32)c1C [Example 69M, 2-(3-((4-(1-(4-(2,3-Dimethylphenoxy)butanoyl)-1,2,3,4-tetrahydroquinolin-5-yl)-1H-pyrazol-1-yl)methyl)phenoxy)ethylphosphonic acid] and Cc1cccc(OCCCC(=O)N2CCCc3c(-c4cnn(Cc5cccc(OCCS(=O)(=O)O)c5)c4)cccc32)c1C [Example 215, 2-(3-((4-(1-(4-(2,3-Dimethylphenoxy)butanoyl)-1,2,3,4-tetrahydroquinolin-5-yl)-1H-pyrazol-1-yl)methyl)phenoxy)ethanesulfonic acid] cannot be ordered by IC50: > 10000 nM for the first, > 10000 nM for the second.
